The record followed here is BindingDB's records for doi:10.1016/j.bmcl.2003.09.065 (Northwestern University, 2003).

Broadly, the Ki is a measure of affinity in units of concentration, obtained from inhibition or displacement. Lower therefore signals tighter binding.

The nature of the experiment: KI for pyridoxal 5'-phosphate (PLP)-dependent Gamma-amino-N-butyrate transaminase at pH 7.4.

In the case of `NC1C=C(C(=O)O)OC1` (stereo unspecified) [4-Amino-4,5-dihydro-furan-2-carboxylic acid anion], the Ki came to 6.3 µM.
